For 10 molecules, TGI results are on record in PubChem BioAssay (NCI).

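Method: 48-hour compound exposure of cells in 96-well plates, five concentrations, linear interpolation of endpoints. TGI is the concentration that stops growth completely.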

Holding throughout (assay): inhibition of tumour cell growth, NCI panel, 48 h
For test [1], the system named is 786-0 renal.
Test [2] relates to CCRF-CEM leukemia.
The subject of test [3] is DU-145 prostate.
For test [4], the system named is HCT-116 colon.
The subject of test [5] is HCT-15 colon.
The test system of test [6] is HL-60(TB) leukemia.
Test [7] concerns HT29 colon.
In test [8] the test system is MALME-3M melanoma.
For test [9], the system named is MOLT-4 leukemia.
Test [10] relates to NCI-H522 lung.
The test system of test [11] is NCI/ADR-RES ovarian.
Test [12] has as its system SNB-75 CNS.
In test [13] the test system is T-47D breast.
For test [14], the system named is UO-31 renal.
In test [15] the test system is OVCAR-3 ovarian.

On to `Nc1cc(N2CCCC2)nc(=O)n1-c1ccccc1`, for which the TGI in [1], in test [2], in [3], in [4], in test [5] and in [6] was over 100 µM throughout. Moreover, the TGI in test [7], in test [8], in test [9], in test [10], in test [11] and in test [12] was over 100 µM each time.
Take `O=C(O)c1ccc(NC(NC(=O)C(C(F)(F)F)C(F)(F)F)(C(F)(F)F)C(F)(F)F)cc1`: the TGI in [1], in test [2], in test [4], in [5], in [6] and in test [7] was over 100 µM in each case. For the same molecule, the TGI in [9], in test [11], in test [12], in [13] and in test [14] was over 100 µM in each case.
As to `COc1cccc2c1OC(c1ccc(C#N)cc1)C([N+](=O)[O-])=C2` (stereo not drawn), the TGI amounted to 11.9 µM in test [1]; 4.51 µM in test [2]; 9.39 µM in [3]; 2.8 µM in test [4]; 3.11 µM in test [5]; 5.62 µM in test [6]. Moreover, the TGI is 3.14 µM in [7]; 2.97 µM in [8]; 0.412 µM in test [10]; over 100 µM in test [11]; 4.6 µM in test [15]; 7.32 µM in [12]. This molecule also showed a TGI in [14] of 3.01 µM.
For the molecule `COc1ccc(C(CC(=O)C(C)(C)CN2CCCCC2)SCCS(=O)(=O)O)cc1` (stereo not drawn), the TGI in test [1] was 60.7 µM; in test [2], 55.1 µM; in [3], over 100 µM; in [4], over 100 µM; in test [5], over 100 µM; in test [6], 67 µM. Besides, the TGI in test [7] was 83.2 µM; in test [8] it was 84.8 µM; in [9] it was 57 µM; in [10], 43.4 µM; in test [11] it was over 100 µM; in [15], 38.3 µM. Further, the figures for the TGI in test [12] and in test [14] were 91.9 µM and over 100 µM, respectively.
Turning to `CCCCCCCCCCCCCCCCOCC(Cl)COP(=O)(O)OP(=O)(O)OCC1OC(n2cc(C)c(=O)[nH]c2=O)CC1O` (stereo not drawn), the TGI in [1], in test [2], in [4], in [5], in test [6] and in [7] was over 100 µM throughout. Moreover, the TGI in [8] was over 100 µM; in test [9], over 100 µM; in test [10] it was over 100 µM; in test [11], over 100 µM; in [15] it was over 100 µM; in [12], 71.8 µM. Also, the TGI in test [13] and in test [14] was over 100 µM throughout.
As to `O=c1ccn(C2OC(CO)C(O)C2[Se]c2ccccc2)c(=O)[nH]1` (stereo not drawn), the TGI in [1], in test [2], in [3], in test [4], in test [5] and in test [6] was over 100 µM each time. In addition, the TGI in test [7], in [8], in test [9], in test [10], in test [11] and in test [15] was over 100 µM in each case. The TGI in test [12] and in test [14] was over 100 µM throughout.
Take `CCc1c(Cc2[nH]c(Cc3[nH]c(C=O)c(C)c3CC)c(CC)c2CC)[nH]c(C=O)c1C`: the TGI in test [1], in test [2], in test [4], in test [5], in [6] and in [7] was over 100 µM throughout. The TGI in [8], in test [9], in test [10], in test [15], in [12] and in test [14] was over 100 µM in each case.
`CC(C)(C)OC(=O)NCCc1cccc2c1oc1c(CCC(=O)O)cccc12`: the TGI in [1], in [2], in test [4], in test [5], in test [6] and in [7] was over 100 µM throughout. Also, the TGI in [8], in test [9], in test [10], in test [15], in test [12] and in [14] was over 100 µM throughout.
Turning to `CC(C)(C)Nc1noc(=O)n1C(C)(C)C`, the TGI in test [1], in test [2], in test [3], in [4], in [5] and in test [6] was over 100 µM each time. Moreover, the TGI in test [7], in test [8], in test [9], in test [10], in test [11] and in [15] was over 100 µM in each case. The TGI in test [12] and in [14] was over 100 µM each time.
Regarding `C[n+]1c(-c2ccc(/C=N/NC(=O)C(=O)N/N=C/c3ccc(-c4cn5ccsc5[n+]4C)cc3)cc2)cn2ccsc21`, the TGI in test [1], in test [2], in test [4], in test [5], in test [6] and in [7] was over 100 µM throughout. For the same molecule, the TGI in test [9], in test [10], in test [11], in test [12], in [13] and in test [14] was over 100 µM each time.
